Tested on: patients affected by psoriatic arthritis
Description: Controlled double-blind clinical trials were carried out on patients 18 to 70 years old affected by psoriatic arthritis showing at least three swollen joints, absence of rheumatoid factor and no other rheumatic conditions.
The patients, who received no previous pharmacological treatment with antirheumatic drugs during the three-month pre-study period, were treated for 4 weeks with Nimesulide (100 to 400 mg/day orally or application of a 3% gel twice a day).
At the end of the treatment period, the following parameters were evaluated:
number of tender and swollen joints
skin symptoms evaluated according to the Psoriasis Area Severity Index (PASI)

[1] = patients 18 to 70 years old, 4 weeks, 100 to 400 mg/day orally or 3% gel twice a day

## CS(=O)(=O)Nc1ccc([N+](=O)[O-])cc1Oc1ccccc1 [Nimesulide]
General statement of finding
  action on joint flogosis: beneficial action on joint flogosis
  effect on skin lesions: remarkable improvement of such lesions
[1]
  clinical efficacy in oligopolyarticular psoriatic arthritis: clinically effective in the treatment of oligopolyarticular psoriatic arthritis in a statistically significant way
  toxic or untoward effects (tolerability): no toxic or untoward effect, particularly no gastrointestinal adverse effect

Reference: US20020016369A1, “Use of nimesulide for the treatment of psoriasis and psoriatic arhtritis” (priority 2000, published 2002)
